Earlier results, collected in US20230000809A1, “TREATMENT OF DISORDERS ARISING FROM GENETIC MUTATION” (priority 2021, published 2023).
Where a name gives a salt, the structure may show the parent alone.

How the values were obtained:
[1] = test system: nuclear factor kappa B (NF-κB)-dependent transcription of TNF-α induced genes; conditions: human endothelial cells, in vitro
[2] = test system: gadolinium enhancing lesions; conditions: RRMS patients; after 24 weeks of treatment as compared to placebo

Compound | effect on NF-κB-dependent transcription of TNF-α induced genes [1] | number of gadolinium enhancing lesions [2]
COC(=O)/C=C/C(=O)OC [DMF, dimethyl fumarate] | inhibitory effect | –
COC(=O)/C=C/C(=O)OC [BG-12] | – | significant reduction
